Assay results as given in article PMC7866395, “A Pipeline towards the Biochemical Characterization of the Arabidopsis GT14 Family” (International Journal of Molecular Sciences, 2021).

How the values were obtained:
Assay type in all cases: biochemical
[1] = target: T1, AT5G15050 (249, AtGlcAT14B) (Arabidopsis thaliana, UniProt Q9LFQ0); assay: glucuronosyltransferase assay, RP-HPLC with fluorescence detection; details: donor 0.4 mM; acceptor 5 uM β-Gal-NBD, β-1,6-Gal4-AA or β-1,3-Gal5-AA; 25 °C, 2 h; microsomes
T1 construct: gene GLCAT14B; full-length CDS, C-terminal YFP and HA tags (pEarleyGate 101), transient expression in Nicotiana benthamiana, Triton X-100 treated microsomal membranes, about 75 kDa fusion
T1 sequence (Q9LFQ0 1-434): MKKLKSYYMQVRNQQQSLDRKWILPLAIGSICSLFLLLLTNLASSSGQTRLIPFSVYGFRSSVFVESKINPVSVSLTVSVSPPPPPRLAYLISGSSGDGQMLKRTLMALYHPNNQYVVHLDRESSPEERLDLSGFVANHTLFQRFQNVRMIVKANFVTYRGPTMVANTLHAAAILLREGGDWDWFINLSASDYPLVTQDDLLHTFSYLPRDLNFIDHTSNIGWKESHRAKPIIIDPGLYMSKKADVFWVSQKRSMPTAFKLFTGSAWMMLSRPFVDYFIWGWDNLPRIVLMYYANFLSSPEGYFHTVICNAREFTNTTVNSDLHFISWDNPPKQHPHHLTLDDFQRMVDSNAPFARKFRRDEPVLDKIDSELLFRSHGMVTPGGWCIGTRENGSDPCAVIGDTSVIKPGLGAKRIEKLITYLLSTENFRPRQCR

[2] = target: T2, AT3G15350 (245, AtGlcAT14E) (Arabidopsis thaliana, UniProt Q9LE60); assay: glucuronosyltransferase assay, RP-HPLC fluorescence and LC-ESI-MS of products; details: donor 0.4 mM; acceptor 5 uM β-1,3-Gal5-AA; 25 °C, 2 h; microsomes
T2 construct: full-length CDS, C-terminal YFP and HA tags (pEarleyGate 101), transient expression in Nicotiana benthamiana, Triton X-100 treated microsomal membranes, about 75 kDa fusion
T2 sequence (Q9LE60 1-424): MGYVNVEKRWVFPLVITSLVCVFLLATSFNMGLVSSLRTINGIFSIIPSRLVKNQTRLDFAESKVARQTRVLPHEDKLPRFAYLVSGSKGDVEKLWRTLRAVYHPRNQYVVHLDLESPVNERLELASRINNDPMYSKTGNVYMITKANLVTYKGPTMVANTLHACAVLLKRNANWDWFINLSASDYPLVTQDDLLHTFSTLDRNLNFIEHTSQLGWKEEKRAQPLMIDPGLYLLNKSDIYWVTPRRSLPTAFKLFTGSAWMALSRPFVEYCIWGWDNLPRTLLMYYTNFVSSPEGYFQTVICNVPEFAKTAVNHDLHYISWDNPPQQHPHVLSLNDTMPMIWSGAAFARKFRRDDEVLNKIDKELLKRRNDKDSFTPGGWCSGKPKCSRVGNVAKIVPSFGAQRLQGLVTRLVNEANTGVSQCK

AT4G27480 (248) = target: T3, AT4G27480 (248) (Arabidopsis thaliana, UniProt F4JIW2); assay: glucuronosyltransferase assay, RP-HPLC with fluorescence detection; details: donor 0.4 mM; acceptor 5 uM β-Gal-NBD, β-1,6-Gal4-AA or β-1,3-Gal5-AA; 25 °C, 2 h; microsomes
T3 construct: full-length CDS, C-terminal YFP and HA tags (pEarleyGate 101), transient expression in Nicotiana benthamiana, Triton X-100 treated microsomal membranes, about 75 kDa fusion
T3 sequence (F4JIW2 1-421): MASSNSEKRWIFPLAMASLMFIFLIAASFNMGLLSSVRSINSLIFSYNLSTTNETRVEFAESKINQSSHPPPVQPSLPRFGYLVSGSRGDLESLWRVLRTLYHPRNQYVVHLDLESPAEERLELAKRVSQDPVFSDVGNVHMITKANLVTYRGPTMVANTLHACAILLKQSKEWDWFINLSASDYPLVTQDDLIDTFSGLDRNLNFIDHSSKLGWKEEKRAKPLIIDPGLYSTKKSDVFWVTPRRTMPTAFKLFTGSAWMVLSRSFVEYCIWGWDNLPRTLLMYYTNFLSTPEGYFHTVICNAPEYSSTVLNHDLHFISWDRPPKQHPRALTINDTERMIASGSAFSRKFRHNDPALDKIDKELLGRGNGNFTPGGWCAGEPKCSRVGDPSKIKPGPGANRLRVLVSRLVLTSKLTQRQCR

O=C(O)[C@H]1O[C@H](OP(=O)(O)OP(=O)(O)OC[C@H]2O[C@@H](n3ccc(=O)[nH]c3=O)[C@H](O)[C@@H]2O)[C@H](O)[C@@H](O)[C@@H]1O [UDP-GlcA]
glucuronosyltransferase assay, RP-HPLC with fluorescence detection [1]: This result confirms that AtGlcAT14B and AtGlcAT14E have GlcAT activity
glucuronosyltransferase assay, RP-HPLC fluorescence and LC-ESI-MS of products [2]: However, only UDP-GlcA was an active substrate donor
glucuronosyltransferase assay, RP-HPLC with fluorescence detection (AT4G27480 (248)): AT4G27480 show the GlcAT activity using the three different acceptors
